In patent US10308644B2, “Heterocyclic compounds as immunomodulators” (Incyte Corporation, priority 2016, dated 2019):

Molecular target: PD-1/PD-L1 (Homo sapiens (Human), UniProt Q9NZQ7)
Assay: PD-1/PD-L1 Homogeneous Time-Resolved Fluorescence (HTRF) Binding Assay
Conditions: recombinant human PD-1 (3 nM) and PD-L1 (10 nM), 25° C., PBS pH 7.4
Summary of the method: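 Fc-tagged human PD-1 (25-167, 3 nM) and His-tagged PD-L1 (19-238, 10 nM) preincubated with inhibitor 40 min in PBS pH 7.4, 0.05% Tween-20, 0.1% BSA, 1% DMSO, 25 °C. Binding detected by HTRF (Eu anti-IgG/APC anti-His, 665/620 nm) after 60 min; IC50 from percent control activity.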

Chain of PD-1/PD-L1 (Q9NZQ7 19-238): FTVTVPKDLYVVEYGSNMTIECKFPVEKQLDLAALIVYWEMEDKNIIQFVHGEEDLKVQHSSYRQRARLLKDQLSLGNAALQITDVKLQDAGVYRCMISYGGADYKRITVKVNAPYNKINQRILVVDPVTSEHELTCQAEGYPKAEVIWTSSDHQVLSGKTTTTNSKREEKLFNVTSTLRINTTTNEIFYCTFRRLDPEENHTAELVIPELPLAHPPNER

Row | IC50 | SMILES
1 | ≤ 10 nM | Cc1c(NC(=O)c2nc3c(n2C)CCN(C)C3)cccc1-c1cccc(-c2nc3cc(CN(C)CCC(=O)O)cc(Cl)c3o2)c1C [Example 42, 3-(((7-chloro-2-(3′-(1,5-dimethyl-4,5,6,7-tetrahydro-1H-imidazo[4,5-c]pyridine-2-carboxamido)-2,2′-dimethylbiphenyl-3-yl)benzo[d]oxazol-5-yl)methyl)(methyl)amino) propanoic acid]
2 | ≤ 10 nM | Cc1c(NC(=O)c2nc3c(n2C)CCN(C)C3)cccc1-c1cccc(-c2nc3cc(CN4CC[C@@H](C(=O)O)C4)cc(C#N)c3o2)c1C [Example 80, (R)-1-((7-cyano-2-(3′-(1,5-dimethyl-4,5,6,7-tetrahydro-1H-imidazo[4,5-c]pyridine-2-carboxamido)-2,2′-dimethylbiphenyl-3-yl)benzo[d]oxazol-5-yl)methyl)pyrrolidine-3-carboxylic acid]
3 | ≤ 10 nM | Cc1c(-c2nc3c(o2)CN(C(=O)CN2CCC(O)CC2)C3)cccc1-c1cccc(-c2nc3cc(CN4CC[C@@](C)(C(=O)O)C4)cc(C#N)c3o2)c1C [Example 249, (R)-1-((7-cyano-2-(3′-(5-(2-(4-hydroxypiperidin-1-yl)acetyl)-5,6-dihydro-4H-pyrrolo[3,4-d]oxazol-2-yl)-2,2′-dimethyl-[1,1′-biphenyl]-3-yl)benzo[d]oxazol-5-yl)methyl)-3-methylpyrrolidine-3-carboxylic acid]
4 | ≤ 10 nM | Cc1c(-c2nc3c(o2)CN(C(=O)CN2CC(O)C2)C3)cccc1-c1cccc(-c2nc3cc(CN4CC[C@@H](C(=O)O)C4)cc(C#N)c3o2)c1C [Example 127, (R)-1-((7-cyano-2-(3′-(5-(2-(3-hydroxyazetidin-1-yl)acetyl)-5,6-dihydro-4H-pyrrolo[3,4-d]oxazol-2-yl)-2,2′-dimethyl-[1,1′-biphenyl]-3-yl)benzo[d]oxazol-5-yl)methyl)pyrrolidine-3-carboxylic acid]
5 | ≤ 10 nM | CCN(CCO)C1CCN(c2cccc(-c3cccc(-c4nc5cc(CN6CC[C@@H](C(=O)O)C6)cc(C#N)c5o4)c3C)c2Cl)CC1 [Example 48, (R)-1-((2-(2′-chloro-3′-(4-(ethyl(2-hydroxyethyl)amino)piperidin-1-yl)-2-methylbiphenyl-3-yl)-7-cyanobenzo[d]oxazol-5-yl)methyl)pyrrolidine-3-carboxylic acid]
6 | ≤ 10 nM | Cc1c(-c2nc3cc(CNCCO)cc(Cl)c3o2)cccc1-c1cccc(NC(=O)c2nc3c(s2)CN(C)CC3)c1Cl [Example 9, N-(2-chloro-3′-(7-chloro-5-(((2-hydroxyethyl)amino)methyl)benzo[d]oxazol-2-yl)-2′-methyl-[1,1′-biphenyl]-3-yl)-5-methyl-4,5,6,7-tetrahydrothiazolo[5,4-c]pyridine-2-carboxamide]
7 | ≤ 10 nM | Cc1c(-c2nc3cc(CN4CC[C@@H](C(=O)O)C4)cc(C#N)c3o2)cccc1-c1cccc(-n2cc3c(n2)CN(C(C)C)C3)c1Cl [Example 56, (R)-1-((2-(2′-chloro-3′-(5-isopropyl-5,6-dihydropyrrolo[3,4-c]pyrazol-2(4H)-yl)-2-methylbiphenyl-3-yl)-7-cyanobenzo[d]oxazol-5-yl)methyl)pyrrolidine-3-carboxylic acid]
8 | ≤ 10 nM | Cc1c(-c2nc3cc(CN4CC[C@@H](C(=O)O)C4)cc(C#N)c3o2)cccc1-c1cccc(-c2nc3c(s2)CN(C(=O)[C@@H]2CCCN2C)C3)c1C [Example 107, (R)-1-((7-cyano-2-(2,2′-dimethyl-3′-(5-((8)-1-methylpyrrolidine-2-carbonyl)-5,6-dihydro-4H-pyrrolo[3,4-d]thiazol-2-yl)biphenyl-3-yl)benzo[d]oxazol-5-yl)methyl)pyrrolidine-3-carboxylic acid]
9 | ≤ 10 nM | CCN(C)CC(=O)N1Cc2nc(-c3cccc(-c4cccc(-c5nc6cc(CN7CCC(C(=O)O)CC7)cc(C#N)c6o5)c4C)c3C)oc2C1 [Example 244, 1-((7-cyano-2-(3′-(5-(N-ethyl-N-methylglycyl)-5,6-dihydro-4H-pyrrolo[3,4-d]oxazol-2-yl)-2,2′-dimethyl-[1,1′-biphenyl]-3-yl)benzo[d]oxazol-5-yl)methyl)piperidine-4-carboxylic acid]
10 | ≤ 10 nM | CCN(C)CC(=O)N1Cc2nc(-c3cccc(-c4cccc(-c5nc6cc(CN7CC[C@@H](C(=O)O)C7)cc(C#N)c6o5)c4C)c3C)oc2C1 [Example 241, (R)-1-((7-cyano-2-(3′-(5-(N-ethyl-N-methylglycyl)-5,6-dihydro-4H-pyrrolo[3,4-d]oxazol-2-yl)-2,2′-dimethyl-[1,1′-biphenyl]-3-yl)benzo[d]oxazol-5-yl)methyl)pyrrolidine-3-carboxylic acid]
11 | ≤ 10 nM | CCN1CCc2c(nc(C(=O)Nc3cccc(-c4cccc(-c5nc6cc(CN7CC[C@H](C(=O)O)C7)cc(C#N)c6o5)c4C)c3C)n2C)C1 [Example 37, (S)-1-((7-cyano-2-(3′-(5-ethyl-1-methyl-4,5,6,7-tetrahydro-1H-imidazo[4,5-c]pyridine-2-carboxamido)-2,2′-dimethylbiphenyl-3-yl)benzo[d]oxazol-5-yl)methyl)pyrrolidine-3-carboxylic acid]
12 | ≤ 10 nM | Cc1c(Nc2nccc3cc(CN4CC[C@H](O)C4)cnc23)cccc1-c1cccc(-c2nc3cc(CN4CCCC[C@H]4C(=O)O)cc(C#N)c3o2)c1C [Example 27, (S)-1-((7-cyano-2-(3′-(3-(((S)-3-hydroxypyrrolidin-1-yl)methyl)-1,7-naphthyridin-8-ylamino)-2,2′-dimethylbiphenyl-3-yl)benzo[d]oxazol-5-yl)methyl)piperidine-2-carboxylic acid]
13 | ≤ 10 nM | Cc1c(-c2nc3cc(CN4CC[C@H](C(=O)O)C4)cc(C#N)c3o2)cccc1-c1cccc(NC(=O)c2nc3c(n2C)CN(C)C3)c1Cl [Example 94, (S)-1-((2-(2′-chloro-3′-(1,5-dimethyl-1,4,5,6-tetrahydropyrrolo[3,4-d]imidazole-2-carboxamido)-2-methylbiphenyl-3-yl)-7-cyanobenzo[d]oxazol-5-yl)methyl)pyrrolidine-3-carboxylic acid]
14 | ≤ 10 nM | Cc1c(Nc2nccc3cc(CN4CC[C@@H](O)C4)cnc23)cccc1-c1cccc(-c2nc3cc(CN4CC[C@@H](C(=O)O)C4)cc(Cl)c3o2)c1C [Example 18, (R)-1-((7-chloro-2-(3′-(3-(((R)-3-hydroxypyrrolidin-1-yl)methyl)-1,7-naphthyridin-8-ylamino)-2,2′-dimethylbiphenyl-3-yl)benzo[d]oxazol-5-yl)methyl)pyrrolidine-3-carboxylic acid]
15 | ≤ 10 nM | Cc1c(Nc2nccn3c(CN4CC[C@H](O)C4)cnc23)cccc1-c1cccc(-c2nc3cc(CN4CC[C@H](C(=O)O)C4)cc(C#N)c3o2)c1C [Example 152, (S)-1-((7-cyano-2-(3′-(3-(((S)-3-hydroxypyrrolidin-1-yl)methyl)imidazo[1,2-a]pyrazin-8-ylamino)-2,2′-dimethylbiphenyl-3-yl)benzo[d]oxazol-5-yl)methyl)pyrrolidine-3-carboxylic acid]
16 | ≤ 10 nM | Cc1c(-c2nc3cc(CN4CC[C@@](C)(C(=O)O)C4)cc(C#N)c3o2)cccc1-c1cccc(-c2nc3c(s2)CN(C(=O)CN[C@H]2C[C@H](O)C2)C3)c1C [Example 229, (R)-1-((7-cyano-2-(3′-(5-(2-(trans-3-hydroxycyclobutylamino)acetyl)-5,6-dihydro-4H-pyrrolo[3,4-d]thiazol-2-yl)-2,2′-dimethylbiphenyl-3-yl)benzo[d]oxazol-5-yl)methyl)-3-methylpyrrolidine-3-carboxylic acid]
17 | ≤ 10 nM | Cc1c(Nc2ncnc3cc(CN4CC[C@@H](O)C4)cnc23)cccc1-c1cccc(-c2nc3cc(CN4CCC[C@H](C(=O)O)C4)cc(C#N)c3o2)c1C [Example 206, (S)-1-((7-cyano-2-(3′-(7-(((R)-3-hydroxypyrrolidin-1-yl)methyl)pyrido [3,2-d]pyrimidin-4-ylamino)-2,2′-dimethylbiphenyl-3-yl)benzo[d]oxazol-5-yl)methyl)piperidine-3-carboxylic acid]
18 | ≤ 10 nM | Cc1c(Nc2nccc3cc(CNC[C@@H](C)O)cnc23)cccc1-c1cccc(-c2nc3cc(CN4CCC(C(=O)O)CC4)cc(C#N)c3o2)c1C [Example 203, (R)-1-((7-cyano-2-(3′-(3-((2-hydroxypropylamino)methyl)-1,7-naphthyridin-8-ylamino)-2,2′-dimethylbiphenyl-3-yl)benzo[d]oxazol-5-yl)methyl)piperidine-4-carboxylic acid]
19 | ≤ 10 nM | Cc1c(-c2nc3cc(CN4CC[C@@H](C(=O)O)C4)cc(C#N)c3o2)cccc1-c1cccc(-c2nc3c(s2)CN(C(=O)CCN(C)C)C3)c1C [Example 106, (R)-1-((7-cyano-2-(3′-(5-(3-(dimethylamino)propanoyl)-5,6-dihydro-4H-pyrrolo[3,4-d]thiazol-2-yl)-2,2′-dimethylbiphenyl-3-yl)benzo[d]oxazol-5-yl)methyl)pyrrolidine-3-carboxylic acid]
20 | ≤ 10 nM | Cc1c(Nc2nccc3cc(CN4CC[C@H](O)C4)cnc23)cccc1-c1cccc(-c2nc3cc(CN(C)CCC(=O)O)cc(Cl)c3o2)c1C [Example 21, (S)-3-(((7-chloro-2-(3′-(3-((3-hydroxypyrrolidin-1-yl)methyl)-1,7-naphthyridin-8-ylamino)-2,2′-dimethylbiphenyl-3-yl)benzo[d]oxazol-5-yl)methyl)(methyl)amino)propanoic acid]
21 | ≤ 10 nM | Cc1c(Nc2nccc3cc(CN4CCC(C(=O)O)CC4)cnc23)cccc1-c1cccc(-c2nc3cc(CNC[C@H](C)O)cc(C#N)c3o2)c1C [Example 212, (S)-1-((8-(3′-(7-cyano-5-((2-hydroxypropylamino)methyl)benzo[d]oxazol-2-yl)-2,2′-dimethylbiphenyl-3-ylamino)-1,7-naphthyridin-3-yl)methyl)piperidine-4-carboxylic acid]
